In article PMC9508196 (Scientific Reports, 2022):
Converted amounts (≈) assume the structure as drawn. No end group written: not given here.

How the values were obtained:
[1] = tested on: A. baumannii isolate A-8.2-1; assay: Disk diffusion test (CLSI), antibiotic susceptibility profile; format: cell-based, Acinetobacter baumannii; conditions: CLSI breakpoints
Method: (§1) ^aAntibiotic susceptibility profile of all isolated strains was evaluated by disk diffusion test, using the standard protocol guide of the Clinical and Laboratory Standards Institute (CLSI), and interpreted as S: Susceptible to standard dosing regimen; I: Intermediate; R: Resistant (in accordance with the criteria of CLST breakpoints).

[2] = tested on: A. baumannii isolate C-8.2-1; assay: as above; format: cell-based, Acinetobacter baumannii; conditions: CLSI breakpoints
Method: as §1

[3] = tested on: A. baumannii isolate C-8.1-2; assay: as above; format: cell-based, Acinetobacter baumannii; conditions: CLSI breakpoints
Method: as §1

[4] = tested on: A. baumannii isolate B-8.2-2; assay: as above; format: cell-based, Acinetobacter baumannii; conditions: CLSI breakpoints
Method: as §1

[5] = tested on: A. baumannii isolate B-8.1-2; assay: as above; format: cell-based, Acinetobacter baumannii; conditions: CLSI breakpoints
Method: as §1

[6] = tested on: A. baumannii isolate B-8.1-1; assay: as above; format: cell-based, Acinetobacter baumannii; conditions: CLSI breakpoints
Method: as §1

[7] = tested on: A. baumannii isolate D-10.1-1; assay: as above; format: cell-based, Acinetobacter baumannii; conditions: CLSI breakpoints
Method: as §1

[8] = tested on: A. baumannii isolate D-10.1-2; assay: as above; format: cell-based, Acinetobacter baumannii; conditions: CLSI breakpoints
Method: as §1

A. baumannii ATCC 19,606 = assay: microbe, parasite or virus in culture; format: cell-based, Acinetobacter baumannii
Excerpt: (§2) Ten strains of both Gram-positive and -negative bacteria, including Staphylococcus aureus ATCC 25,923, S. epidermidis ATCC 12,228, Bacillus cereus ATCC 11,778, Listeria monocytogenes 10403S, Salmonella typhimurium ATCC 13,311, Pseudomonas aeruginosa ATCC 27,853, Shigella sonnei ATCC 11,060, A. baumannii ATCC 19,606, Escherichia coli ATCC 25,922 and E. coli O157:H7, were used in this study. Eight clinical isolates of multidrug-resistant (MDR) and extensively drug-resistant (XDR) A. baumannii, isolated from human (blood, sputum, respiratory sample, sterile site sample and urine), were kindly provided by Asst. Prof. Dr. Sakawrat Kanthawong (Faculty of Medicine, Khon Kaen University, Thailand) (Table S1). All bacterial strains, excluding L. monocytogenes 10403S and E. coli, were cultured in tryptic soy broth (TSB). L. monocytogenes was grown in TSB supplemented with 0.6% yeast extract (TSB-YE), and E. coli was cultured in Luria broth (LB). All of bacteria were cultured at 37 °C with continuous shaking at 220 rpm.
(§3) Minimum inhibitory concentration (MIC) of peptides and antibiotics was assessed by a modified version of the broth microdilution method from the Clinical and Laboratory Standards Institute (CLSI) as previously described. In brief, mid-log phase growths of microbial strains were cultured in Müeller-Hinton broth (MHB) with an initial inoculum of 2–8 × 10^5 CFU/mL. Bacteria suspensions were incubated in sterile 96-well plates with test agents at desired concentrations. […] Minimum bactericidal concentration (MBC) determination was performed using a modified version of the colony count assay. In brief, fifty µl of all non-turbid wells from MIC experiments were spread on agar plates. The MBC value was defined as the lowest concentration of peptides with no colony growth on the plate. All assays were performed in triplicate.

[9] = tested on: Listeria monocytogenes 10403S; format: cell-based; conditions: L. monocytogenes 10403S; broth microdilution, MHB, 24 h, 37 °C, triplicate
Excerpt: as §2, §3

[10] = tested on: Escherichia coli ATCC 25,922; format: cell-based; conditions: E. coli ATCC 25,922; broth microdilution, MHB, 24 h, 37 °C, triplicate
Excerpt: as §2, §3

[11] = tested on: Salmonella Typhimurium ATCC 13,311; format: cell-based; conditions: S. Typhimurium ATCC 13,311; broth microdilution, MHB, 24 h, 37 °C, triplicate
Excerpt: as §2, §3

[12] = tested on: Shigella sonnei ATCC 11,060; format: cell-based; conditions: S. sonnei ATCC 11,060; broth microdilution, MHB, 24 h, 37 °C, triplicate
Excerpt: as §2, §3

[13] = tested on: Staphylococcus aureus ATCC 25,923; format: cell-based; conditions: S. aureus ATCC 25,923; broth microdilution, MHB, 24 h, 37 °C, triplicate
Excerpt: as §2, §3

[14] = tested on: Staphylococcus epidermidis ATCC 12,228; format: cell-based; conditions: S. epidermidis ATCC 12,228; broth microdilution, MHB, 24 h, 37 °C, triplicate
Excerpt: as §2, §3

[15] = tested on: Pseudomonas aeruginosa ATCC 27,853; format: cell-based; conditions: P. aeruginosa ATCC 27,853; broth microdilution, MHB, 24 h, 37 °C, triplicate
Excerpt: as §2, §3

[16] = tested on: Escherichia coli O157:H7 MT strain; format: cell-based; conditions: E. coli O157:H7 MT strain; broth microdilution, MHB, 24 h, 37 °C, triplicate
Excerpt: as §2, §3

[17] = tested on: Bacillus cereus ATCC 11,778; format: cell-based; conditions: B. cereus ATCC 11,778; broth microdilution, MHB, 24 h, 37 °C, triplicate
Excerpt: as §2, §3

[18] = tested on: A. baumannii C-8.2–1 (XDR); assay: microbe, parasite or virus in culture; format: cell-based, Acinetobacter baumannii; conditions: Acinetobacter baumannii
Excerpt: as §2, §3

[19] = tested on: A. baumannii B-8.1–2 (MDR); assay: microbe, parasite or virus in culture; format: cell-based, Acinetobacter baumannii; conditions: Acinetobacter baumannii
Excerpt: as §2, §3

[20] = tested on: A. baumannii C-8.1–2 (MDR); assay: microbe, parasite or virus in culture; format: cell-based, Acinetobacter baumannii; conditions: Acinetobacter baumannii
Excerpt: as §2, §3

[21] = tested on: A. baumannii B-8.1–1 (MDR); assay: microbe, parasite or virus in culture; format: cell-based, Acinetobacter baumannii; conditions: Acinetobacter baumannii
Excerpt: as §2, §3

[22] = tested on: A. baumannii B-8.2–2 (XDR); assay: microbe, parasite or virus in culture; format: cell-based, Acinetobacter baumannii; conditions: Acinetobacter baumannii
Excerpt: as §2, §3

[23] = tested on: A. baumannii A-8.2–1 (XDR); assay: microbe, parasite or virus in culture; format: cell-based, Acinetobacter baumannii; conditions: Acinetobacter baumannii
Excerpt: as §2, §3

[24] = A. baumannii ATCC 19,606, broth microdilution (modified CLSI), MHB, 2–8 × 10^5 CFU/mL, 24 h, 37 °C, triplicate

Row | Compound | Antibiotic susceptibility profile [1] | Antibiotic susceptibility profile [2] | Antibiotic susceptibility profile [3] | Antibiotic susceptibility profile [4] | Antibiotic susceptibility profile [5] | Antibiotic susceptibility profile [6] | Antibiotic susceptibility profile [7] | Antibiotic susceptibility profile [8] | MIC (A. baumannii ATCC 19,606; [24]) | MIC [9] | MIC [10] | MIC [11] | MIC [12] | MIC [13] | MIC [14] | MIC [15] | MIC [16] | MIC [17] | other results
1 | CC(C)(O/N=C(\C(=O)N[C@@H]1C(=O)N2C(C(=O)[O-])=C(C[n+]3ccccc3)CS[C@H]12)c1csc(N)n1)C(=O)O [Caz, Ceftazidime] | R | R | I | R | R | S | R | I |  |  |  |  |  |  |  |  |  |  | 
2 | RLFRRVKKVAGKIAK-NH2 [AP15] |  |  |  |  |  |  |  |  | 62.5 µg/mL | 31.25 µg/mL | 31.25 µg/mL | 31.25 µg/mL | 62.5 µg/mL | 250 µg/mL | 15.63 µg/mL | 125 µg/mL | 62.5 µg/mL | > 250 µg/mL | 
3 | RLFRRVKKVAGKIA-NH2 [AP14] |  |  |  |  |  |  |  |  | > 250 µg/mL | 62.5 µg/mL | 125 µg/mL | 62.5 µg/mL | 125 µg/mL | > 250 µg/mL | 31.25 µg/mL | 250 µg/mL | 250 µg/mL | > 250 µg/mL | 
4 | CN(C)c1ccc(O)c2c1C[C@H]1C[C@H]3[C@H](N(C)C)C(O)=C(C(N)=O)C(=O)[C@@]3(O)C(O)=C1C2=O [Minocycline] |  |  |  |  |  |  |  |  |  |  |  |  |  |  |  |  |  |  | MBC [18]: 31.2 µg/mL (≈ 68.3 µM); MIC [18]: 1.95 µg/mL (≈ 4.26 µM); MBC [19]: 15.6 µg/mL (≈ 34.2 µM); MIC [19]: 0.98 µg/mL (≈ 2.14 µM); MBC [20]: 31.2 µg/mL (≈ 68.3 µM); MIC [20]: 3.91 µg/mL (≈ 8.55 µM); MBC [21]: 7.81 µg/mL (≈ 17.1 µM); MIC [21]: ≤ 0.49 µg/mL; MBC [22]: 31.2 µg/mL (≈ 68.3 µM); MIC [22]: 3.91 µg/mL (≈ 8.55 µM); MBC [23]: 31.2 µg/mL (≈ 68.3 µM); MIC [23]: 0.98 µg/mL (≈ 2.14 µM); MBC (A. baumannii ATCC 19,606; Acinetobacter baumannii, ATCC19): 1.95 µg/mL (≈ 4.26 µM); MIC (A. baumannii ATCC 19,606; Acinetobacter baumannii, ATCC19, 24 h): ≤ 0.49 µg/mL
5 | RLFRRVKKVAGK-NH2 [AP12] |  |  |  |  |  |  |  |  | > 250 µg/mL | 125 µg/mL | 125 µg/mL | 125 µg/mL | 250 µg/mL | > 250 µg/mL | 250 µg/mL | > 250 µg/mL | 250 µg/mL | > 250 µg/mL | 
6 | CNC(C)C1CCC(N)C(OC2C(N)CC(N)C(OC3OCC(C)(O)C(NC)C3O)C2O)O1 (stereo not drawn) [Gen, Gentamicin] | R | R | R | R | R | I | R | I |  |  |  |  |  |  |  |  |  |  | 
